According to patent publication US20260027083A1, “USE OF PPAR AGONIST FOR IMPROVEMENT OF ENERGY METABOLISM” (NOVMETAPHARMA CO., LTD., priority 2022, published 2026):

Columns and labels:
[1] = biological target: T1, His-tagged recombinant human PPARβ/δ ligand binding domain (Homo sapiens, UniProt Q03181); assay: CNBr-bead conjugation (pull-down) assay, hPPARβ/δ-LBD; settings: CNBr-coupled drug, positive control GW501516, FIG. 2
T1 construct: made in house; host or cells: E. coli (DE3, Rosetta)
T1 sequence (Q03181 211-439 limits assumed): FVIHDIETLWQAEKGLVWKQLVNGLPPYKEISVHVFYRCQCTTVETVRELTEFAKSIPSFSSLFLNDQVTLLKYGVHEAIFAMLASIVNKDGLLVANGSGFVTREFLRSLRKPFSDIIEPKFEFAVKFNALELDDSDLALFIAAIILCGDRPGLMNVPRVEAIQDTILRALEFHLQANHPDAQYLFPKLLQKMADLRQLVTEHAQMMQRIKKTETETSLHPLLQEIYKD
Experimental: A compound of the present invention represented by Chemical Formula 1 was synthesized by DAEJUNG Chemicals & Metals (Gyeonggi-do, Korea) (indicated as ‘D6’ in the drawing). WY14643, GW501516, and rosiglitazone were purchased from Sigma-Aldrich (St. Louis, MO, USA). The compounds were dissolved in dimethyl sulfoxide (DMSO), diluted in a culture solution, and used in the experiment. Cyanogen bromide (CNBr)-activated Sepharose 4B was purchased from Sigma-Aldrich (St. Louis, MO, USA). His-tagged recombinant human PPAR-ligand binding domain (LBD) was expressed in E. coli (DE3, Rosetta) and then purified and used. A His antibody was purchased from Cell Signaling Technology (Danvers, Massachusetts, USA). 3-Isobutyl-1-methylxanthine (IBMX), dexamethasone, bovine pancreatic insulin, and Oil Red O were purchased from Sigma-Aldrich (St. Louis, MO, USA). A PRO-PREP™ Protein Extraction Solution was purchased from iNtRON Biotechnology (iNtRON Biotech., Korea). […]
100 mg of CNBr-activated Sepharose 4B was added to an e-tube, and then the beads were activated by rotating with 1 ml of 1 mM HCl for 10 minutes at room temperature. […] Each e-tube was added with the drug and rotated overnight at 4° C., at which time the concentration was measured to be 20 μM. […] The supernatant was completely removed, and the pellet was detected by Western blotting. […]

[2] = biological target: T2, PPARβ/δ (Homo sapiens, UniProt Q03181); assay: Gal4 trans-activated luciferase reporter assay, PPARβ/δ-LBD, HEK293; assay type: cell-based; settings: HEK293, drug treatment 24 hours, FIG. 1
T2 construct: three types of pcDNA5-GAL4 and pGALRE-luc containing PPARα-LBD, PPARβ/δ-LBD, or PPARγ-LBD; GAL4 (fusion partner from vector pcDNA5-GAL4); expressed in transfected cells; host or cells: HEK293
T2 sequence (Q03181 211-439 limits assumed): T1 sequence (Q03181 211-439 limits assumed)
Experimental: A plasmid was transformed into E. coli (DE3, Rosetta) and transfected into HEK293 cells and used. Referring to known literatures such as Kanno, Y. & Inouye, Y. J Toxicol Sci 35, 515-525 (2010), Zhao, S. et al. J Nat Prod 79, 879-885 (2016), etc., luciferase assay was performed on three types of pcDNA5-GAL4 and pGALRE-luc containing PPARα-LBD, PPARβ/δ-LBD, or PPARγ-LBD. pProEX-PPAR and pET-28a were used for purification of His-tagged recombinant hPPAR-LBD protein.
A HEK293 cell line was cultured in Dulbecco's Modified Eagle Medium (DMEM) containing 10% Fetal Bovine Serum (FBS) and 1% penicillin-streptomycin (P/S). […]
Transfected HEK293 cells were treated with a drug and after 24 hours, the cells were collected, resuspended in a luciferase lysis buffer (Promega, Madison, Wisconsin, USA), and incubated on ice for 10 minutes. […] Next, Firefly Luciferase (Fluc) and Renilla Luciferase (Rluc) activities were measured using the Dual Luciferase Reporter Assay System (Promega, Madison, Wisconsin, USA). […]
To confirm whether a compound represented by Chemical Formula 1 was a PPAR agonist, Gal4 trans-activated luciferase assay was performed. Specifically, HEK293 cells were transfected with the Gal4-luciferase reporter systems of PPARα, PPARβ/δ, and PPARγ, respectively, harvested after drug treatment for 24 hours, and then analyzed by Dual-Luciferase assay. […]

relative luciferase activity (Fluc to Rluc) for PPARβ/δ [2]: dose-dependently increased
Compound: COc1ccc(-c2cc(=O)oc3c(C)c(OC(=O)[C@H](Cc4c[nH]c5ccccc45)NC(=O)OC(C)(C)C)ccc23)cc1 [Chemical Formula 1, [4-(4-methoxyphenyl)-8-methyl-2-oxochromen-7-yl] (2S)-3-(1H-indol-3-yl)-2-[(2-methylpropan-2-yl)oxycarbonylamino]propanoate]
conjugation (binding) to hPPARβ/δ-LBD, Western blotting [1]: as much potently as a PPAR agonist used as a positive control
